Patent publication US20230149507A1, “TREATMENT OF ALT CANCERS” (INSTITUTO DE MEDICINA MOLECULAR JOÃO LOBO ANTUNES, priority 2019, published 2023)
Each block holds one molecule with its values, some of them ahead of it.

Assays:
[1] = tested on: U2OS and HeLa cells; experiment: Indirect IF with anti-BLM and anti-TRF2 antibodies, camptothecin treatment; format: cell-based, human
From the text: HeLa cervical cancer, HT1080 fibrosarcoma, and HEK293 embryonic kidney cells were purchased from ATCC. U2OS osteosarcoma cells were a kind gift from M. Lopes (IMCR, Zurich, Switzerland). HuO9, Saos2 and HOS osteosarcoma cells were a kind gift from B. Fuchs (Balgrist University Hospital, Zurich, Switzerland). WI-38 VA13 in vitro SV40-transformed lung fibroblasts were a kind gift from A. Londoño-Vallejo (CNRS, Paris, France). SKNAS neuroblastoma cells were a kind gift from O. Shakhova (University Hospital Zurich, Switzerland). HeLa, HT1080, HEK293, U2OS, and WI-38 VA13 cells were cultured in high glucose DMEM, GlutaMAX (Thermo Fisher Scientific) supplemented with 10% tetracycline-free fetal bovine serum (Pan BioTech) and 100 U/ml penicillin-streptomycin (Thermo Fisher Scientific). HuO9, Saos2, HOS and SKNAS cells were cultured in high glucose DMEM/F12, GlutaMAX (Thermo Fisher Scientific), supplemented with 10% tetracycline-free fetal bovine serum (Pan BioTech), 100 U/ml penicillin-streptomycin (Thermo Fisher Scientific) and non-essential amino acids (Thermo Fisher Scientific). Mycoplasma contaminations were tested using the VenorGeM Mycoplasma PCR Detection Kit (Minerva Biolabs) according to the manufacturer's instructions. […]

[2] = target: T1, BLM-TOP3A-RMI (BTR) complex (human, UniProt P54132 1-1417; Q13472 1-1001; Q9H9A7 1-625; Q96E14 2-147, limits assumed); experiment: competition co-IP: peptide added to HEK-293 Flag-FANCM lysate, Flag IP, TOP3A immunoblot
T1 construct: Endogenous complex in cell lysates (BLM, TOP3A, RMI1, RMI2); In the co-IPs it is read out by TOP3A and/or RMI1 immunoblot
Description: For co-IP experiments involved the ER-inducible system, cells were lysed in IP buffer (20 mM Tris-HCl pH 7.5, 100 mM NaCl, 10% (v/v) glycerol, 0.5 mM EDTA, 1 mM DTT) supplemented with 1× mammalian protease inhibitor cocktail (Sigma Aldrich) and 50 U/ml Benzonase (Novagen) for 2 h at 4° C., with or without MM2 peptide variants (Mimotopes). Following lysis, NaCl concentration was increased to 250 mM, then the lysate cleared at 16,000×g for 15 mins. Supernatant was then mixed with 1 μg of α-FANCM (Abcam) or α-ER (Santa Cruz Biotechnology) and 20 μl protein G sepharose (GE Healthcare), or using α-Flag M2 agarose (Sigma Aldrich). Following 3 h of mixing at 4° C., beads were washed 4× with IP buffer, and 1× with 50 mM NH₄(CO₃)₂, 0.5 mM EDTA, then eluted with 500 mM NH₄OH (pH 11.0), 0.5 mM EDTA. Samples were then lyophilized and resuspended in 1×LDS loading buffer (Life Technologies) prior to immunoblotting.
To explore the possibility of specifically targeting ALT cell viability through FANCM, two approaches to disrupt the FANCM-BTR complex were adopted. […] To investigate the effects of FANCM-BTR complex disruption in ALT cells, the MM2 peptide was rendered functionally dependent on tamoxifen by fusion to the C-terminus of the estrogen receptor (MM2-ER) (FIG. 11a). […]

T1 sequence (P54132 whole entry, chain 1 of 4): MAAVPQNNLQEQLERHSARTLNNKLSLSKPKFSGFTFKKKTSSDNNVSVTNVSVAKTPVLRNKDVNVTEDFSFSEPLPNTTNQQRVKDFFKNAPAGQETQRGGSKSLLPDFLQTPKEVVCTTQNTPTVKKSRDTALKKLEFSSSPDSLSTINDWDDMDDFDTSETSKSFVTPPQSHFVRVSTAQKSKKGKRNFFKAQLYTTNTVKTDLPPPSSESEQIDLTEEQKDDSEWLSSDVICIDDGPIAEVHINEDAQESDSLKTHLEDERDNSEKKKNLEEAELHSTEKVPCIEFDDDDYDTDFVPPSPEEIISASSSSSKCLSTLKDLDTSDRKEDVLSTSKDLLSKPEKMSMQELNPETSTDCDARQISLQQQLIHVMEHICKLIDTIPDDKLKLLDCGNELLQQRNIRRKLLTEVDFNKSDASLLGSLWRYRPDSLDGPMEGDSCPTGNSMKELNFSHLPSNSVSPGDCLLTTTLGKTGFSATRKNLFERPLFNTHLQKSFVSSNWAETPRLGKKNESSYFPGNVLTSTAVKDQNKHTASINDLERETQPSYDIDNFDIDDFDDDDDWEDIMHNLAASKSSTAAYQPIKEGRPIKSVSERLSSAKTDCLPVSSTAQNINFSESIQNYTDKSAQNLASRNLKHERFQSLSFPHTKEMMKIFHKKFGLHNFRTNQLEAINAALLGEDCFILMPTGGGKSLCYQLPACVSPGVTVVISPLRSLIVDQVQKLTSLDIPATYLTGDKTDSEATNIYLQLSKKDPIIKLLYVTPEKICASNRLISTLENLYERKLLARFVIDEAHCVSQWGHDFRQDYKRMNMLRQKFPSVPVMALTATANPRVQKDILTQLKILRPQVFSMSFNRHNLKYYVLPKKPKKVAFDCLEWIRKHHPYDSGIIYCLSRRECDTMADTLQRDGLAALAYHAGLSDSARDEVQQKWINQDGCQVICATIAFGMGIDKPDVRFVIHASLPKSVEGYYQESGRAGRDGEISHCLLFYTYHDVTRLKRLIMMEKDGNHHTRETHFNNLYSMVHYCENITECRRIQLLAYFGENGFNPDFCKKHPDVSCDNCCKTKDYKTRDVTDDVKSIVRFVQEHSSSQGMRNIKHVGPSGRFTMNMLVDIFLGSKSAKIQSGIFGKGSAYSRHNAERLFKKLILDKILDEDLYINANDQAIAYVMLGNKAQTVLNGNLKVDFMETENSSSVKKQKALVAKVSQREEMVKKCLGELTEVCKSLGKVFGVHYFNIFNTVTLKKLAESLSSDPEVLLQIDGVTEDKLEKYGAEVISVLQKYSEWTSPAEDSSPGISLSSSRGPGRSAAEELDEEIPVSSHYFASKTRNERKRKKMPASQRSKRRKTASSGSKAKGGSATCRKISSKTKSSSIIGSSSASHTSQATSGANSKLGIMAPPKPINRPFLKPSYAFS
T1 sequence (Q13472 whole entry, chain 2 of 4): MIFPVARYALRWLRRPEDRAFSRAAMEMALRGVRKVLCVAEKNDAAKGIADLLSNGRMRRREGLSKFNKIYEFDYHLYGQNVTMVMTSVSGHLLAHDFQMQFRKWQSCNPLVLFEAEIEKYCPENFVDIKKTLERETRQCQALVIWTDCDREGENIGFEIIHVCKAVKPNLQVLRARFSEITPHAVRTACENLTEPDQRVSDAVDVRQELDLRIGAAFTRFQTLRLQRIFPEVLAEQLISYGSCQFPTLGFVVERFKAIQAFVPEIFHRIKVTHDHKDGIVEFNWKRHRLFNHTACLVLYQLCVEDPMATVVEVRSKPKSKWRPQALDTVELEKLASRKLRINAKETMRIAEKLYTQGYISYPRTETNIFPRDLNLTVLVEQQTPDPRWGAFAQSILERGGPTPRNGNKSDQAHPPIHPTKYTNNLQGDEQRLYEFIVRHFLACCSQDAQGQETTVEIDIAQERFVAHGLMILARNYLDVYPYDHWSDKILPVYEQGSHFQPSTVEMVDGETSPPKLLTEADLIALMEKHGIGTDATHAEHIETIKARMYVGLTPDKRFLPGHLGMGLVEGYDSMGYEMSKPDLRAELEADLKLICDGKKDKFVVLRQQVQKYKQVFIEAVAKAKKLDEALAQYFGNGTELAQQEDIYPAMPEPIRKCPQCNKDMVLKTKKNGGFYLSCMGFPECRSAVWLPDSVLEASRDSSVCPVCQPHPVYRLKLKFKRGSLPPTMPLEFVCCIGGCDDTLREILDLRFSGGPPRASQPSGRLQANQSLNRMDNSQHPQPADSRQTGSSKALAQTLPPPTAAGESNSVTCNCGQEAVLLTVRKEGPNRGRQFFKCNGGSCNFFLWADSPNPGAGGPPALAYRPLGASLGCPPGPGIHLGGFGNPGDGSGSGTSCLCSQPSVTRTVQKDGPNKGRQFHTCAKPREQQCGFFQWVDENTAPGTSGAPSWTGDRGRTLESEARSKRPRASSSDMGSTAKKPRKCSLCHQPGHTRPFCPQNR
T1 sequence (Q9H9A7 whole entry, chain 3 of 4): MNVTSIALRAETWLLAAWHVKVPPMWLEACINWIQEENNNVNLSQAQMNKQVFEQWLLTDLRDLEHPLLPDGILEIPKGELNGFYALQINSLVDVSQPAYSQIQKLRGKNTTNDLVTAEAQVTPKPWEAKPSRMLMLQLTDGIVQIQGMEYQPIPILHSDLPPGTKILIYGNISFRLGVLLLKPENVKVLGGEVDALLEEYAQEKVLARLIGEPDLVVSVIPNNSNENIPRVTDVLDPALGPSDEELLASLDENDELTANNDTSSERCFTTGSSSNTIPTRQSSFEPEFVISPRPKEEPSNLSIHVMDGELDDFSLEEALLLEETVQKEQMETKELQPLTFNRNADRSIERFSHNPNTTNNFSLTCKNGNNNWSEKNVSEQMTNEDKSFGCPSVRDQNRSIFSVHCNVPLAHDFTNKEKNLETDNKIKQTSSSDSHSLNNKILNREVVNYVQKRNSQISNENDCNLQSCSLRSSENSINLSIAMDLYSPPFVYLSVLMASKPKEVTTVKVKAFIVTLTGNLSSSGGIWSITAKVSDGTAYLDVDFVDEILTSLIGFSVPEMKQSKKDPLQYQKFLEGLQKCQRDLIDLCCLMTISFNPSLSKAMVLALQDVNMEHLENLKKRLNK
T1 sequence (Q96E14 2-147 limits assumed, chain 4 of 4): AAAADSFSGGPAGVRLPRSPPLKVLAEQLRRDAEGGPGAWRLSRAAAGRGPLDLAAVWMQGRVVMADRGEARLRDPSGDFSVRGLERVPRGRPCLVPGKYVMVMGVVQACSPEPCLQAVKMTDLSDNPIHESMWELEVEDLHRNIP

Molecule: CC[C@@]1(O)C(=O)OCc2c1cc1n(c2=O)Cc2cc3ccccc3nc2-1 [CPT, Camptothecin]
BLM TIF frequencies ([1]; all samples): marginally affected TIF frequencies | nuclear (non-telomeric) BLM foci ([1]; siCt-transfected U2OS and HeLa cells, 1 μM camptothecin for 3 hours): robust formation of nuclear (non-telomeric) BLM foci

binding result [2]: no binding (tested: 1-50 µM)
B1: mutant human FANCM MM2 peptide containing the FF>AA mutant (peptide)
peptide: EDIFDCSRDLFSVTADLGACSPDSDDEILEHTSD
notes: also called MM2-FF>AA mutant peptide
